Reference: publication PMC10712727, “Safety, Tolerability, and Pharmacokinetics of Senaparib, a Novel PARP1/2 Inhibitor, in Chinese Patients With Advanced Solid Tumors: A Phase I Trial” (The Oncologist, 2023)

Test system: patients with advanced solid tumors
Assay: Safety: treatment-emergent and senaparib-related adverse events graded per NCI CTCAE v4.03
Assay type: in vivo
Settings: TEAE
Description: This phase I, open-label, multicenter, dose-escalation, and dose-expansion study was conducted at three national clinical institutions in China. […] At baseline, all patients enrolled in the dose-escalation phase had to have at least one evaluable lesion, and those in the dose-expansion period had to have at least one measurable lesion, according to Response Evaluation Criteria in Solid Tumors version 1.1 (RECIST v1.1).[16] Entry to the dose-expansion cohort required the presence of a BRCA mutation, with the exception of patients with ovarian carcinoma, fallopian tube carcinoma, and primary peritoneal carcinoma. Full study eligibility criteria are provided in Supplementary Table S1.
Dose escalation was conducted using a modified Fibonacci 3 + 3 method (Supplementary Fig. S1).[17] Patients were administered oral senaparib from a planned starting dose of 2 mg once daily (QD), with preliminary dose escalation to 120 mg via nine dose groups, in order of their entry into the study. At a given dose level, each patient received a single dose of senaparib followed by a 7-day washout period. They then entered a continuous dosing period to confirm the safety and PK profile, in which they received senaparib QD from day 1 to day 21 of each 3-week cycle. Progression to the next higher dose required approval from the Data Safety Monitoring Committee (DSMC) upon review of the safety and PK data of the previous dose. A 50-mg twice-daily (BID) dosing group was added (planned enrollment, n = 6 patients) based on a DSMC review of the safety, PK, and efficacy analysis of the completed QD dose groups in the phase I clinical trial of senaparib dose escalation in Australia (NCT03507543), which commenced prior to the start of this trial.
The dose-expansion period included 3 populations: dose groups in which at least one patient achieved complete response (CR) or partial response (PR) per RECIST v1.1[16] and 1 dose group higher (evaluated for safety), as well as the dose group at the maximum tolerated dose (MTD)/recommended phase II dose (RP2D). Each of these groups included those patients in the respective dose-escalation group plus a planned additional 10 patients (approximately 20 patients in the MTD/RP2D group) with BRCA^mut+ solid tumors (ovarian, breast, or prostate cancer were preferred, and ovarian cancer could be BRCA wild type). Patients received senaparib monotherapy orally QD or BID (50-mg dose only) over each 3-week cycle until disease progression or unacceptable toxicity.
DLTs were predefined toxicities (Supplementary Table S2) recorded over the 7 days following the single-dose administration of senaparib and during the first treatment cycle (day 1-day 21) for each dose group in the dose-escalation period only. The MTD was defined as the maximum dose at which ≤1/6 patients experienced a DLT. Senaparib PK parameters were derived from blood samples collected from patients after the single administration, and at regular intervals during the first cycle of the dose-escalation and dose-expansion periods. Plasma concentrations of senaparib were determined using high-performance liquid chromatography-tandem mass spectrometry. Tumor response was assessed every 6 weeks per RECIST v1.1,[16] recording objective response rate (ORR), disease control rate (DCR), duration of response (DOR), and progression-free survival (PFS) by dose level for all patients and for those harboring BRCA^mut+ tumors.

## O=C(c1cc(Cn2c(=O)[nH]c(=O)c3c(F)cccc32)ccc1F)N1CCN(c2ncccn2)CC1 [Senaparib]
10 mg QD n = 3
  Vomiting, Gr≥3: 0 n (%)
  WBC decreased, All: 1 (33.3) n (%)
  WBC decreased, Gr≥3: 0 n (%)
20 mg QD n = 5
  ALT increased, All: 0 n (%)
  ALT increased, Gr≥3: 0 n (%)
  AST increased, All: 0 n (%)
  AST increased, Gr≥3: 0 n (%)
  Abdominal distension, All: 1 (20.0) n (%)
  Abdominal distension, Gr≥3: 0 n (%)
  Anemia (incl. hemoglobin decreased), All: 1 (20.0) n (%)
  Anemia (incl. hemoglobin decreased), Gr≥3: 1 (20.0) n (%)
  Appetite decreased, All: 1 (20.0) n (%)
  Appetite decreased, Gr≥3: 0 n (%)
  Asthenia, All: 1 (20.0) n (%)
  Asthenia, Gr≥3: 0 n (%)
  Blood bilirubin increased, All: 0 n (%)
  Blood bilirubin increased, Gr≥3: 0 n (%)
  Blood creatinine increased, All: 1 (20.0) n (%)
  Blood creatinine increased, Gr≥3: 0 n (%)
  Hypokalemia, All: 1 (20.0) n (%)
  Hypokalemia, Gr≥3: 0 n (%)
  Hyponatremia, All: 0 n (%)
  Hyponatremia, Gr≥3: 0 n (%)
  Nausea, All: 1 (20.0) n (%)
  Nausea, Gr≥3: 0 n (%)
  Neutrophil count decreased, All: 0 n (%)
  Neutrophil count decreased, Gr≥3: 0 n (%)
  Pain in extremity, All: 1 (20.0) n (%)
  Pain in extremity, Gr≥3: 1 (20.0) n (%)
  Platelet count decreased, All: 1 (20.0) n (%)
  Platelet count decreased, Gr≥3: 0 n (%)
  Protein in urine, All: 1 (20.0) n (%)
  Protein in urine, Gr≥3: 0 n (%)
  Vomiting, All: 0 n (%)
  Vomiting, Gr≥3: 0 n (%)
  WBC decreased, All: 1 (20.0) n (%)
  WBC decreased, Gr≥3: 0 n (%)
40 mg QD n = 3
  ALT increased, All: 0 n (%)
  ALT increased, Gr≥3: 0 n (%)
  AST increased, All: 0 n (%)
  AST increased, Gr≥3: 0 n (%)
  Abdominal distension, All: 0 n (%)
  Abdominal distension, Gr≥3: 0 n (%)
  Anemia (incl. hemoglobin decreased), All: 1 (33.3) n (%)
  Anemia (incl. hemoglobin decreased), Gr≥3: 0 n (%)
  Appetite decreased, All: 0 n (%)
  Appetite decreased, Gr≥3: 0 n (%)
  Asthenia, All: 1 (33.3) n (%)
  Asthenia, Gr≥3: 0 n (%)
  Blood bilirubin increased, All: 0 n (%)
  Blood bilirubin increased, Gr≥3: 0 n (%)
  Blood creatinine increased, All: 1 (33.3) n (%)
  Blood creatinine increased, Gr≥3: 0 n (%)
  Hypokalemia, All: 0 n (%)
  Hypokalemia, Gr≥3: 0 n (%)
  Hyponatremia, All: 0 n (%)
  Hyponatremia, Gr≥3: 0 n (%)
  Nausea, All: 0 n (%)
  Nausea, Gr≥3: 0 n (%)
  Neutrophil count decreased, All: 0 n (%)
  Neutrophil count decreased, Gr≥3: 0 n (%)
  Pain in extremity, All: 0 n (%)
  Pain in extremity, Gr≥3: 0 n (%)
  Platelet count decreased, All: 0 n (%)
  Platelet count decreased, Gr≥3: 0 n (%)
  Protein in urine, All: 0 n (%)
  Protein in urine, Gr≥3: 0 n (%)
  Vomiting, All: 0 n (%)
  Vomiting, Gr≥3: 0 n (%)
  WBC decreased, All: 0 n (%)
  WBC decreased, Gr≥3: 0 n (%)
50 mg BID n = 4
  ALT increased, All: 1 (25.0) n (%)
  ALT increased, Gr≥3: 0 n (%)
  AST increased, All: 1 (25.0) n (%)
  AST increased, Gr≥3: 0 n (%)
  Abdominal distension, All: 0 n (%)
  Abdominal distension, Gr≥3: 0 n (%)
  Anemia (incl. hemoglobin decreased), All: 3 (75.0) n (%)
  Anemia (incl. hemoglobin decreased), Gr≥3: 2 (50.0) n (%)
  Appetite decreased, All: 0 n (%)
  Appetite decreased, Gr≥3: 0 n (%)
  Asthenia, All: 1 (25.0) n (%)
  Asthenia, Gr≥3: 0 n (%)
  Blood bilirubin increased, All: 0 n (%)
  Blood bilirubin increased, Gr≥3: 0 n (%)
  Blood creatinine increased, All: 0 n (%)
  Blood creatinine increased, Gr≥3: 0 n (%)
  Hypokalemia, All: 0 n (%)
  Hypokalemia, Gr≥3: 0 n (%)
  Hyponatremia, All: 3 (75.0) n (%)
  Hyponatremia, Gr≥3: 1 (25.0) n (%)
  Nausea, All: 2 (50.0) n (%)
  Nausea, Gr≥3: 0 n (%)
  Neutrophil count decreased, All: 0 n (%)
  Neutrophil count decreased, Gr≥3: 0 n (%)
  Pain in extremity, All: 0 n (%)
  Pain in extremity, Gr≥3: 0 n (%)
  Platelet count decreased, All: 1 (25.0) n (%)
  Platelet count decreased, Gr≥3: 0 n (%)
  Protein in urine, All: 0 n (%)
  Protein in urine, Gr≥3: 0 n (%)
  Vomiting, All: 2 (50.0) n (%)
  Vomiting, Gr≥3: 0 n (%)
  WBC decreased, All: 2 (50.0) n (%)
  WBC decreased, Gr≥3: 0 n (%)
60 mg QD n = 5
  ALT increased, All: 0 n (%)
  ALT increased, Gr≥3: 0 n (%)
  AST increased, All: 0 n (%)
  AST increased, Gr≥3: 0 n (%)
  Abdominal distension, All: 2 (40.0) n (%)
  Abdominal distension, Gr≥3: 0 n (%)
  Anemia (incl. hemoglobin decreased), All: 0 n (%)
  Anemia (incl. hemoglobin decreased), Gr≥3: 0 n (%)
  Appetite decreased, All: 1 (20.0) n (%)
  Appetite decreased, Gr≥3: 0 n (%)
  Asthenia, All: 1 (20.0) n (%)
